Assays:
NF-κB p65 = NF-κB p65 ELISA, nuclear extract of LPSEc-stimulated RAW 264.7 cells; type: cell-based, murine; conditions: 10 μM; LPSEc control 8.40 ± 0.09
Protocol: (§1) The anti-inflammatory activity of the test compounds was assessed in E. coli lipopolysaccharide (LPSEc)-induced inflammation in RAW 264.7 cells. Cells (5 × 10^5 cells/well) were incubated for 24 h in a 24-well plate. Then, the cells were challenged with LPSEc (100 ng/mL) for 4 h. The test compounds (10, 1, 0.1, 0.01 and 0.001 µM) or positive control (dimethyl fumarate, 10 μM) were then added and incubated for 24 h. The levels of NO production and pro-inflammatory cytokines (IL-1β, IL-6, IFN-γ and TNF-α) were determined using the supernatant solution. The cell pellet was used to measure the levels of COX-2, NF-κB p65, NRF2, and HO-1.
(§2) The COX-2 level was estimated in the cytoplasmic extract, whereas NF-κB p65, NRF-2 and HO-1 levels were estimated in nuclear extract. The nuclear extraction kit was used to separate the cytoplasm from the nucleus following the manufacturer’s instructions. The cell pellet was incubated in 100 µL of pre-extraction buffer on ice for 10 min, vortexed, and centrifuged. The supernatant cytoplasmic extract was collected. […] The protein concentration in the extracts was determined using Bradford’s reagent. […] The levels were measured in triplicate. The absorbance was measured using a Spectramax M3 microplate reader (Molecular Devices, LLC., San Jose, CA 95134, USA). […]

Hepa-1c1c7 cells = assay: MTT cytotoxicity on Hepa-1c1c7 cells; type: cell-based, murine; conditions: MTT assay, 24 h
Protocol: (§3) The cytotoxicity of the test compounds on RAW 264.7 and Hepa-1c1c7 cells was assessed using Vybrant® MTT Cell Proliferation Assay Kit following the manufacturer’s protocol. The cells were seeded at 5 × 10^5 cells/well and incubated for 24 h. Then, various concentrations (100 to 0.01 μM) of the test compounds were added and incubated for a further 24 h. The cell supernatant solution was replaced with the MTT assay solution and incubated for 4 h. The formazan crystals were dissolved in DMSO, and the optical density (OD) of the solution was measured at 570 nm (reference wavelength 630 nm) using Spectramax M3 microplate reader (Molecular Devices, LLC., San Jose, CA 95134, USA). The cell viability was calculated using the following formula, and the results are presented as mean ± SD. Percent cell viability %=ODtreated cells−ODblank/ODuntreated cells− ODblank×100%

[1] = Metabolic stability in human liver microsomes; type: in vitro ADME; conditions: 37 °C; for Clint: 0.5 µM; for half-life at 0.5 µM: read-out: Half-life (T1/2)
Protocol: (§4) Metabolic stability is an important parameter in the drug discovery pipeline. The metabolic stability of test compounds was evaluated in vitro using human, rat and mouse liver microsomes. The metabolic equation below determines the test compounds’ half-life (T1/2) and intrinsic clearance (Clint). Compound+ NADPH + H^++ O2 → oxidized analyte + NADP^++ H2O
(§5) The metabolic stability of the test compounds in human, rat, and mouse liver microsomes was determined using the method described in our previous work. Five microlitres of auranamide or patriscabratine (0.5 µM) were incubated in a reaction mixture at 37 °C for 0, 3, 6, 15, 30, 45 and 60 min. The concentration of test compounds in the reaction mixture was quantified using Agilent 1290 coupled with Q-TOF. The experiment was carried out in triplicate. The concentration versus time plot calculated the elimination rate constant (Kel). The below formulae were used to calculate the intrinsic clearance (Clint) and half-life (T1/2). The results are expressed as mean ± standard deviation from three experiments. Clint= Kel/0.5 ×52.5 T1/2= 0.693/Kel

NRF2 = NRF2 ELISA, nuclear extract of RAW 264.7 cells; type: cell-based, murine; conditions: 10 μM, vs negative control
Protocol: (§6) The NRF2 activation is associated with increased NQO1 activity and an increased concentration of NRF2 and HO-1 in the nucleus. The protective role of NRF2/HO-1 in inflammatory diseases is well documented. Therefore, the NRF2 and HO-1 levels in nuclear extracts of the RAW 264.7 cells were determined using ELISA kits and expressed as fold changes with reference to the negative control. The effect of test compounds on NQO1 activity was determined using the reported method in murine hepatoma cells (Hepa-1c1c7). Dimethyl fumarate was used as a positive control, and 0.1% DMSO was used as a negative control. […]
(§7) The anti-inflammatory activity of the test compounds was assessed in E. coli lipopolysaccharide (LPSEc)-induced inflammation in RAW 264.7 cells. […] The levels of NO production and pro-inflammatory cytokines (IL-1β, IL-6, IFN-γ and TNF-α) were determined using the supernatant solution. […]
(§8) The COX-2 level was estimated in the cytoplasmic extract, whereas NF-κB p65, NRF-2 and HO-1 levels were estimated in nuclear extract. […] The protein concentration in the extracts was determined using Bradford’s reagent. […] The levels were measured in triplicate. The absorbance was measured using a Spectramax M3 microplate reader (Molecular Devices, LLC., San Jose, CA 95134, USA). […]

[2] = Metabolic stability in mouse liver microsomes; type: in vitro ADME; conditions: 37 °C; for Clint: 0.5 µM; for half-life at 0.5 µM: read-out: Half-life (T1/2)
Protocol: as §4, §5

TNF-α = TNF-α ELISA in LPSEc challenged RAW 264.7 cells; type: cell-based, murine; conditions: 10 μM; vs untreated cells; LPSEc alone 4.33 ± 0.17
Protocol: as §1
(§9) Single-Analyte ELISArray kits were used to quantify the pro-inflammatory cytokines (IL-1β, IL-6, IFN-γ and TNF-α) in the cell supernatant following the manufacturer’s instructions. The standard protein (50 μL) or test sample solutions (50 μL) were added to a well (in duplicate) and incubated for 2 h at room temperature. The contents in the well were washed with wash buffer, and then 100 µL of biotinylated detection antibody solution was added and incubated for 1 h at room temperature. […] The optical density was measured at 450/570 nm using a Spectramax microplate reader M3 (Molecular Devices, LLC., San Jose, CA 95134, USA). The levels of pro-inflammatory cytokines (in pg/mL) in test samples were calculated using the standard curve. […]

IL-1β = IL-1β ELISA in LPSEc challenged RAW 264.7 cells; type: cell-based, murine; conditions: 10 μM; vs untreated cells; LPSEc alone 4.56 ± 0.13
Protocol: as §1, §9

COX-2 = COX-2 ELISA, cytoplasmic extract of LPSEc-stimulated RAW 264.7 cells; type: cell-based, murine; conditions: 10 μM; LPSEc control 8.09 ± 0.08
Protocol: as §1, §2

[3] = system: nitric oxide (NO) production; assay: NO production (Griess assay) in LPSEc-stimulated RAW264.7 cells; type: cell-based, murine; conditions: for reduced the NO production by: 10 μM, LPSEc-stimulated NO = 100%; for IC50: Mus musculus, 100 ng/mL LPSEc, RAW264.7, 24 h, read-out: IC50 (concentration required to reduce the NO production by 50%)
Protocol: The anti-inflammatory activity of the compounds was tested using Escherichia coli lipopolysaccharide (LPSEc) stimulated RAW264.7 cells. Nitric oxide (NO) is a classical marker used to measure inflammation. The Griess assay was used to determine NO production. The cells were stimulated with 100 ng/mL LPSEc and the NO produced was considered to be at 100%. The anti-inflammatory effect of the compounds was assessed by adding the compounds (10, 1, 0.1, 0.01, and 0.001 µM) to the LPSEc stimulated cells. The efficacy of the compounds was assessed by calculating their ability to reduce the LPSEc stimulated NO production. Dimethyl fumarate was used as a positive control, and 0.1% DMSO was used as a negative control. […] The anti-inflammatory effect was not observed at concentrations of less than 0.1 μM.
as §1
LPSEc activates inducible nitric oxide synthase (iNOS) in RAW 264.7 cells and produces nitric oxide (NO), an important mediator of inflammation. The NO content in the supernatant solution was measured using the Griess assay following the manufacturer’s instructions. The optical density (OD) was measured at 540 nm using a Spectramax M3 microplate reader (Molecular Devices, LLC., San Jose, CA 95134, USA). The formula provided below was used to calculate the percentage of NO production. Percent NO production=ODtreated cells− ODblank/ODuntreated cells− ODblank×100%
The activity of the test compounds was tested in triplicate on each plate. The results are presented as mean ± SD. Treatment was performed with either LPSEc alone or LPSEc and test compounds were designated as treated cells. RAW264.7 cells treated with vehicle (0.1% DMSO) were designated as untreated cells.

HO-1 = HO-1 ELISA, nuclear extract of RAW 264.7 cells; type: cell-based, murine; conditions: 10 μM, vs negative control
Protocol: as §6, §7, §8

NQO1 = NQO1 activity, Prochaska microtiter plate bioassay in Hepa-1c1c7 cells; type: cell-based, murine; conditions: 48 h
Protocol: The NRF2 activation is associated with increased NQO1 activity and an increased concentration of NRF2 and HO-1 in the nucleus. The protective role of NRF2/HO-1 in inflammatory diseases is well documented. Therefore, the NRF2 and HO-1 levels in nuclear extracts of the RAW 264.7 cells were determined using ELISA kits and expressed as fold changes with reference to the negative control. The effect of test compounds on NQO1 activity was determined using the reported method in murine hepatoma cells (Hepa-1c1c7). Dimethyl fumarate was used as a positive control, and 0.1% DMSO was used as a negative control. […] The CD value (concentration of test compound to double the NQO1 activity) of auranamide was 6.81 ± 0.18 μM, while for patriscabratine it was 4.28 ± 0.17 μM.
The “Prochaska” Microtiter Plate Bioassay was used to measure the NQO1 activity in hepatoma cells (Hepa-1c1c7). The cells (5 × 10^5 per well) were seeded and incubated with either auranamide or patriscabratine (10, 1, 0.1, 0.01, and 0.001 µM) or a reference drug (dimethyl fumarate, 10 μM) for 48 h. […] The protein concentration was determined using Bradford’s reagent. […] The optical density of the solution was determined at 610 nm using a Spectramax M3 microplate reader (Molecular Devices, LLC., San Jose, CA 95134, USA), and the values were normalized to the total protein content.

RAW264.7 cells = assay: MTT cytotoxicity on RAW264.7 cells; type: cell-based, murine; conditions: MTT assay, 24 h, RAW 264.7 cells
Protocol: as §3

IL-6 = IL-6 ELISA in LPSEc challenged RAW 264.7 cells; type: cell-based, murine; conditions: 10 μM; vs untreated cells; LPSEc alone 6.91 ± 0.05
Protocol: as §1, §9

IFN-γ = IFN-γ ELISA in LPSEc challenged RAW 264.7 cells; type: cell-based, murine; conditions: 10 μM; vs untreated cells; LPSEc alone 8.62 ± 0.26
Protocol: as §1, §9

[4] = Metabolic stability in rat liver microsomes; type: in vitro ADME; conditions: 37 °C; for Clint: 0.5 µM; for half-life at 0.5 µM: read-out: Half-life (T1/2)
Protocol: as §4, §5

| Structure (SMILES) | NF-κB p65 fold change (NF-κB p65) | concentrations found to be cytotoxic (Hepa-1c1c7 cells) | Clint [1] | half-life at 0.5 µM [1] | NRF2 upregulation (NRF2) | Clint [2] | half-life at 0.5 µM [2] | TNF-α fold change (TNF-α) | IL-1β fold change (IL-1β) | COX-2 fold change (COX-2) | reduced the NO production by [3] | IC50 [3] | HO-1 upregulation (HO-1) | CD value (concentration of test compound to double the NQO1 activity) (NQO1) | concentrations found to be cytotoxic (RAW264.7 cells) | IL-6 fold change (IL-6) | IFN-γ fold change (IFN-γ) | Clint [4] | half-life at 0.5 µM [4] |
| --- | --- | --- | --- | --- | --- | --- | --- | --- | --- | --- | --- | --- | --- | --- | --- | --- | --- | --- | --- |
| O=C(N[C@@H](COC(=O)[C@H](Cc1ccccc1)NC(=O)c1ccccc1)Cc1ccccc1)c1ccccc1 [Auranamide] | 2.13 ± 0.20 fold changes | higher than 10 µM | 10.18 ± 0.35 mL/min/g liver | 7.14 min | 2.66 ± 0.16 fold | 16.18 ± 0.43 mL/min/g liver | 4.5 min | 2.42 ± 0.24 fold change | 2.05 ± 0.16 fold change | 2.53 ± 0.25 fold changes | 33.22% | 1220 ± 950 nM | 1.74 ± 0.09 fold | 6.81 ± 0.18 µM | higher than 10 µM | 2.85 ± 0.31 fold change | 4.06 ± 0.19 fold change | 17.22 ± 0.46 mL/min/g liver | 4.23 min |
| CC(=O)NC(COC(=O)C(Cc1ccccc1)NC(=O)c1ccccc1)Cc1ccccc1 (centres unmarked) [Patriscabratine] | 2.25 ± 0.27 fold changes | higher than 10 µM | 13.27 ± 0.42 mL/min/g liver | 5.48 min | 2.37 ± 0.06 fold | 18.64 ± 0.51 mL/min/g liver | 3.9 min | 2.53 ± 0.18 fold change | 1.96 ± 0.12 fold change | 2.17 ± 0.31 fold changes | 30.84% | 1850 ± 930 nM | 1.83 ± 0.07 fold | 4.28 ± 0.17 µM | higher than 10 µM | 2.51 ± 0.38 fold change | 4.15 ± 0.21 fold change | 18.53 ± 0.56 mL/min/g liver | 3.93 min |
